Experimental data from US5108916A, “Process for stereoselectively hydrolyzing, transesterifying or esterifying with immobilized isozyme of lipase from Candida rugosa” (priority 1989, dated 1992).
Read-outs that look alike come from different tables or passages of the source.

Columns and labels:
[1] = Conversion of ketoprofen esters in organic solvent/oleic acid media; type: biochemical
Protocol: To optimize the organic solvent used in the presence of oleic acid a variety of organic solvents were used, along with a variety of ketoprofen esters. In this experiment, 50 mg of ketoprofen esters were weighed into flasks, along with 1 ml of oleic acid and 9 ml of an organic solvent. The flasks were capped and incubated at 35° C., 250 rpm, for 10-26 hours before stopping the reaction by first adding 4 ml CHCl3 to solubilize the substrates and products, then filtering through a 0.2 um Gelman Nylaflo filter. Samples were then diluted in methanol and analyzed by HPLC as in Example 18. The experiment was also performed using 200 ul of oleic acid and 10ml buffer, which was acidified, extracted with CHCl3 and analyzed by HPLC as above.
One ml of oleic acid was added, as was 9 ml of buffer (100 mM (NH4)H2 PO4, pH 5.5) or organic solvent. Flasks were placed into a 35° C. incubator and shaken at 250 rpm for 13 hours. Reaction was stopped by adding 5 ml CHCl3 to solubilize the organic material and filtering the solutions using 0.2 um Gelman Nylaflo membranes to remove the enzyme. Samples were analyzed on an ODS-3 RAC column using CH3 OH:10 mM (NH4)H2PO4 (60:40) as eluant, flow rate 4 ml/min, and detection at 254 nm. %ee was determined by the resolution of diastereomeric amides on the above HPLC system, as per Example 18.

Lipase MY = assay: Two phase Lipase MY hydrolysis of HPPA-Me in organic solvent/water mixtures; type: biochemical, Candida rugosa
Protocol: A. 75% organic solvent/25% aqueous buffer--Fifty milligrams of R,S-HPPA-Me was combined in 10 ml Scintillation vial with 7.5 ml of organic solvent, 2.5 ml of 50 mM phosphate buffer pH 6.0, and 5 mg Lipase MY. The reactions were placed on shaker and shaken for a period of 0-43 hours with samples being taken at various times.
B. 25% organic solvent/75% aqueous buffer--Fifty milligrams of R,S-HPPA-Me was combined, in 10 ml Scintillation vial with 2.5 ml of organic solvent, 7.5 ml 50mM phosphate buffer (pH 6.8), and 5 mg Lipase MY. The reactions were shaken for a period of 0-143 hours with samples being taken at various time points.
The data in Table 2 represents the % conversion and % R-HPPA produced using the indicated organic solvents in a two-phase system wherein 75% […] of the total vehicle (solvent) was water and the balance (25%) was organic solvents.

CSC-2 = assay: Effect of additives and solvents on hydrolysis of ketoprofen monoglyceride by CSC-2; type: biochemical, Candida rugosa; conditions: solvent/buffer 1:1 two phase, 26 hours; for Relative Rate: buffer = 100
Protocol: Hydrolysis of ketoprofen-monoglyceride (50mg) was carried out in various DMF-100mM (NH4)H2 PO4 buffer (pH 5.5) mixtures. In each flask a solution of ketoprofen monoglyceride (50mg) in DMF (200ul) was added. DMF was added followed by 100mM (NH4)H2 PO4 buffer. […] After 22 hours, 2%, 5%, and 10% DMF samples were acidified, extracted with CHCl3 (2×10ml) and analyzed. The other samples were analyzed directly as in Example 18. The acid produced decreases with increasing amount of DMF.
Small amounts of DMF were added to the reaction mixture to increase the solubility of KPG. In all cases 100mM ammonium phosphate buffer (pH 5.5) was used and 2% (v/v) detergents were added and the total volume was 10ml.
The buffer reaction (entry #2 in the table) contained enzyme in buffer (2 ml) and the buffer only (entry #1 in the table) reaction contained no enzyme.
The presence of a surfactant like Tween increases the solubility o lipophilic compounds in water. […] Tween 80 was added to make 1% and 2% solution (v/v). Bovine serum albumin (BSA) (10mg) was added to each of two flasks. A solution of 50mg of ketoprofen monoglyceride in 200ul DMF was added to each. After 20 hours at 250 rpm and 35° C. the reaction mixtures were acidified, extracted and analyzed by the usual HPLC procedure as in Example 18.
Various surfactants were used at 2% of the reaction volume to determine their effect on the enzymatic reaction involving the conversion of ketoprofen monoglyceride (KPG) to ketoprofen (KP). […] Flasks were covered with parafilm and incubated in a 35° C. water bath at 250 rpm, typically overnight. Reactions were stopped by acidification, extracted with CHCl3 (2×10 ml). The %acid and %ee were determined by the method of Example 18. It is to be noted that Hydrophile-Lipophile Balance (HLB) values have no apparent bearing on the ability of the surfactant to enhance the conversion of KPG to KP.
75 mg of KPG (in the absence of DMF) was individually weighed into 50 ml Erlenmeyer flasks. […] 9 ml of 100 mM (NH4)H2 PO4, pH 5.5 buffer was added, and the flasks were placed into a 35° C., 250 rpm water bath incubator for 20 hours. The reactions were acidified, extracted with CHCl3 and examined by HPLC as in Example 18. The %ee was determined as per Example 18.
Various amounts of oleic acid or its esters were added, and the reactions stopped at the times indicated, acidified, extracted with CHCl3 and analyzed as in Example 18.
An experiment was performed as in Example 41, but using 100, 200 and 500 ul of olive oil to determine if it would enhance the rate of conversion of KPG to KP. […] After 20 hours, all reactions were acidified, extracted with CHCl3 and analyzed by HPLC as in Example 18. The results are given below:
50 mg of KPG was weighed into Erlenmeyer flasks. […] Flasks were incubated at 35° C., 250 rpm for 23 hours. The reactions were stopped by acidification, extracted with CHCl3, and analyzed by HPLC as in Example 18. The additive is listed along with its percentage composition of glycerides of oleic acid.
To determine the problems associated with having oleic acid or oleate. esters in the reaction media, the following experiment was performed. […] Flasks were placed in a 35° C. incubator at 250 rpm, and the reactions were sampled by taking 200 ul aliquots at various time points. These aliquots were analyzed by HPLC (ODS-3 RAC column, CH3 OH: 10 mM (NH4)H2 PO4 (60:40) eluant, 4 ml/min, 254 nm detection) to determine the course of reaction. When approximately 40% acid was produced, the reactions were stopped by placing the flasks in the -70° C. freezer. Two extraction procedures were utilized to determine the best method of isolating S-Ketoprofen free of oleic acid. The first (listed as Extraction Procedure I in the following table) involved first making the solution basic (pH 10) with NaOH, then extracting with hexane, then CHCl3.

[2] = KPG 50 mg, 100 mg CSC-2 on silica (279-SD-1), 9 ml solvent (or buffer)/1 ml oleic acid, 13 hours

## ClC(Cl)=C(Cl)Cl [tetrachloroethylene]
[1]; KPEG 50 mg, as E212
  % Acid: 0%
[1]; KPEG, as E212
  % ee S-acid: 0%
[1]; [2]
  % Acid: 1%
[1]; KPG, as E212
  % ee S-acid: 0%
Lipase MY; solvent 25%, 5.3 hr
  % R: 83%
  Conversion (ester/acid): 61%
Lipase MY; solvent 75%, 5.3 hr
  % R: 85%
  Conversion (ester/acid): 58%
CSC-2
  EE of S-acid: 27%
  Relative Rate: 3

## C1=CCCCCCC1 [Cyclooctene]
[1]; KPEG 50 mg, as E212
  % Acid: 16%
[1]; KPEG, as E212
  % ee S-acid: 92%
[1]; [2]
  % Acid: 38%
[1]; KPG, as E212
  % ee S-acid: 98%
CSC-2
  EE of S-acid: 95%
  Relative Rate: 387

## CC(C)=O [acetone]
Lipase MY
  % R: 0%
  Conversion (ester/acid): 0%

## xylenes
Lipase MY; solvent 25%, 5.3 hr
  % R: 100%
  Conversion (ester/acid): 49%
Lipase MY; solvent 75%, 5.36 hr
  % R: 89%
  Conversion (ester/acid): 41%
CSC-2
  EE of S-acid: 81%
  Relative Rate: 44

## c1ccc2c(c1)CCCC2 [1,2,3,4-Tetrahydronapthalene]
[1]; KPEG 50 mg, as E212
  % Acid: 1%
[1]; KPEG, as E212
  % ee S-acid: 1%
[1]; [2]
  % Acid: 2%
[1]; KPG, as E212
  % ee S-acid: 68%
CSC-2
  EE of S-acid: 85%
  Relative Rate: 136

## CCO [ethyl alcohol]
Lipase MY
  Conversion (ester/acid): 0%
Lipase MY; solvent 25%, 43 hr
  % R: 0%
Lipase MY; solvent 75%, 43 hr
  % R: 0%

## ClC(Cl)(Cl)Cl [carbon tetrachloride]
Lipase MY; solvent 25%, 2.7 hr
  % R: 79%
  Conversion (ester/acid): 58%
Lipase MY; solvent 75%, 2.7 hr
  % R: 76%
  Conversion (ester/acid): 61%
CSC-2
  EE of S-acid: 95%
  Relative Rate: 48

## CC(C(=O)OCCCl)c1cccc(C(=O)c2ccccc2)c1 (centres unmarked) [2-Chloroethyl Ester, 2-chloroethyl ester of ketoprofen]
[1]; Buffer 10 ml, OA 200 ul
  % ee: 96%
[1]; Buffer 10 ml, OA 200 ul, enzyme not named in Example 55
  % Acid: 18%
[1]; CHCl3 9 ml, OA 1 ml
  % Acid: 2%
  % ee: 3%
[1]; Hexane 9 ml, OA 1 ml, 10-26 hours
  % Acid: 7%
[1]; Hexane 9 ml, OA 1 ml, * stopped at 10 Hr
  % ee: 92%
[1]; Isooctane 9 ml, OA 1 ml
  % Acid: 18%
[1]; Isooctane 9 ml, OA 1 ml, * stopped at 10 Hr
  % ee: 97%
[1]; Toluene 9 ml, OA 1 ml
  % Acid: 1%
  % ee: < 1%

## CC(C)O [2-propanol]
Lipase MY; solvent 25%, 43 hr
  % R: 0%
  Conversion (ester/acid): 0%
Lipase MY; solvent 75%, 43 hr
  % R: 0%
  Conversion (ester/acid): 0%

## Fc1ccccc1 [fluorobenzene]
Lipase MY; solvent 25%, 5.3 hr
  % R: 95%
  Conversion (ester/acid): 40%
Lipase MY; solvent 75%, 5.3 hr
  % R: 86%
  Conversion (ester/acid): 29%

## Cc1ccccc1 [toluene]
Lipase MY; solvent 25%, 2.7 hr
  % R: 100%
Lipase MY; solvent 75%, 2.7 hr
  % R: 90%
  Conversion (ester/acid): 25%
CSC-2
  EE of S-acid: 58%
  Relative Rate: 15
